Patent US11691971B2, “Naphthyridinone compounds as JAK2 V617F inhibitors” (Incyte Corporation, priority 2020, dated 2023)
Counter-ions that a name gives are not always drawn.

Key:
[1] = molecular target: pseudo-kinase domain (JH2) of human Wild Type JAK2 (Homo sapiens (Human), UniProt O60674, F794H/W659A/W777A); assay: JAK2 LanthaScreen JH2-WT Binding Assay; details: JAK2 JH2-WT 0.145 nM, 50 nM tracer, 1 hour at 25° C.; read-out: JH2BIND_WT IC50
Description: Example B. JAK2 LanthaScreen JH2-WT Binding Assay
(§1) The assay was conducted in black 384-well polystyrene plates in a final reaction volume of 20 μL. JAK2 JH2-WT (0.145 nM) was incubated with compounds (100 nL serially diluted in DMSO) in the presence of 50 nM Fluorescent JAK2-JH2 Tracer (MedChem Express Catalog #HY-102055) and 0.25 nM Streptavidin-Tb cryptate (Cisbio Part #610SATLB) in assay buffer (50 mM Tris, pH=7.5, 10 mM MgCl2, 0.01% Brij-35, 0.1% BSA, 1 mM EGTA, 5% Glycerol and 5 mM DTT). Non-specific binding was accessed in the presence of 2 mM ATP. After incubation for 1 hour at 25° C., LanthaScreen signals were read on a PHERAstar FS plate reader (BMG LABTECH). Data was analyzed with IDBS XLfit and GraphPad Prism 5.0 software using a four parameter dose response curve to determine IC50 for each compound.

[2] = molecular target: catalytic domain (JH1, amino acids 826-1132) of human JAK2 (Homo sapiens (Human), UniProt O60674); assay: JAK2 LanthaScreen JH1 Binding Assay; details: JAK2 JH1 1.5 nM, 50 nM tracer, 2 hours at 25° C.; read-out: JH1BIND IC50
Description: Example A. JAK2 LanthaScreen JH1 Binding Assay
as §1, with “JAK2 JH1 binding assay utilizes catalytic domain (JH1, amino acids 826-1132) of human JAK2 expressed as N-terminal FLAG-tagged, biotinylated protein in a baculovirus expression system (Carna Biosciences, Product #08-445-20N). The” for “The”, “JH1 (1.5” for “JH2-WT (0.145”, “fluorescent JAK2-JH1 tracer” for “Fluorescent JAK2-JH2 Tracer (MedChem Express Catalog #HY-102055)”, “0.5” for “0.25”, “2 hours” for “1 hour”

[3] = molecular target: pseudo-kinase domain (JH2) of human V617F mutant JAK2 (Homo sapiens (Human), UniProt O60674, F794H/V617F/W659A/W777A); assay: JAK2 LanthaScreen JH2-V617F Binding Assay; details: JAK2 JH2-V617F 0.26 nM, 50 nM tracer, 1 hour at 25° C.; read-out: JH2BINDING_V617F IC50
Description: The assay was conducted in black 384-well polystyrene plates in a final reaction volume of 20 μL. […] Non-specific binding was accessed in the presence of 2 mM ATP. After incubation for 1 hour at 25° C., LanthaScreen signals were read on a PHERAstar FS plate reader (BMG LABTECH). Data was analyzed with IDBS XLfit and GraphPad Prism 5.0 software using a four parameter dose response curve to determine IC50 for each compound.

[4] = molecular target: catalytic domain (JH1, amino acids 808-1132) of human JAK2 (Homo sapiens (Human), UniProt O60674); assay: JAK2 HTRF Enzyme Activity Assay; assay type: biochemical; details: ATP 30 μM, 60 minutes at 25° C.; read-out: ENZ 30UMATP IC50
Description: Example D. JAK2 HTRF Enzyme Activity Assay
JAK2 enzyme activity assays utilize catalytic domain (JH1, amino acids 808-1132) of human JAK2 expressed as N-terminal His-tagged protein in a baculovirus expression system (BPS Bioscience, Catalog #40450). The assays was conducted in black 384-well polystyrene plates in a final reaction volume of 20 μL. JAK2 (0.015 nM) was incubated with compounds (100 nL serially diluted in DMSO) in the presence of ATP (30 μM or 1 mM) and 500 nM Biotin-labeled […] (SEQ ID NO.: 1) peptide (BioSource International, custom synthesis) in assay buffer (50 mM Tris, pH=7.5, 10 mM MgCl2, 0.01% Brij-35, 0.1% BSA, 1 mM EGTA, 5% Glycerol and 5 mM DTT) for 60 minutes at 25° C. The reactions were stopped by the addition of 10 μL of detection buffer (50 mM Tris, pH 7.8, 0.5 mg/mL BSA, 150 mM NaCl), supplemented with EDTA, LANCE Eu-W1024 anti-phosphotyrosine (PY20), (PerkinElmer, Catalog #AD0067) and Streptavidin SureLight APC (PerkinElmer Catalog #CR130-100), for a final concentration of 15 mM, 1.5 nM and 75 nM, respectively. HTRF signals were read after 30 minutes incubation at room temperature on a PHERAstar FS plate reader (BMG LABTECH). Data was analyzed with IDBS XLfit and GraphPad Prism 5.0 software using a four parameter dose response curve to determine IC50 for each compound.

Chain of pseudo-kinase domain (JH2) of human V617F mutant JAK2 (O60674 536-812 V617F/W659A/W777A/F794H): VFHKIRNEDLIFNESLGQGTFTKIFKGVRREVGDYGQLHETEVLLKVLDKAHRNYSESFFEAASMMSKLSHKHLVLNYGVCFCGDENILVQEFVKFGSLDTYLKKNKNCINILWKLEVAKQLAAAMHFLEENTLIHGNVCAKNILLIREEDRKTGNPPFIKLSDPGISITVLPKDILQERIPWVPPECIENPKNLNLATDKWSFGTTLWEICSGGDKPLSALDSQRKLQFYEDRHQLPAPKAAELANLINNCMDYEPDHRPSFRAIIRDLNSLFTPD
Chain of pseudo-kinase domain (JH2) of human Wild Type JAK2 (O60674 536-812 W659A/W777A/F794H): as the sequence (O60674 536-812 V617F/W659A/W777A/F794H) above, with F82V counted along it
Chain of catalytic domain (JH1, amino acids 826-1132) of human JAK2 (O60674 826-1132): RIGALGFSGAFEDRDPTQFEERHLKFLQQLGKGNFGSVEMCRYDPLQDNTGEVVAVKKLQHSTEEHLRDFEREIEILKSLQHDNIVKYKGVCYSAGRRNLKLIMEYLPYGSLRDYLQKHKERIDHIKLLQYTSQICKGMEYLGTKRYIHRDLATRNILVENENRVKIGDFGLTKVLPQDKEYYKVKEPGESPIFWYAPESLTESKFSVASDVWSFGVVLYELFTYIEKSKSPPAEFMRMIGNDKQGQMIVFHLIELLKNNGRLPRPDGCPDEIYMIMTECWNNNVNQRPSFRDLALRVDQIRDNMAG
Chain of catalytic domain (JH1, amino acids 808-1132) of human JAK2 (O60674 808-1132): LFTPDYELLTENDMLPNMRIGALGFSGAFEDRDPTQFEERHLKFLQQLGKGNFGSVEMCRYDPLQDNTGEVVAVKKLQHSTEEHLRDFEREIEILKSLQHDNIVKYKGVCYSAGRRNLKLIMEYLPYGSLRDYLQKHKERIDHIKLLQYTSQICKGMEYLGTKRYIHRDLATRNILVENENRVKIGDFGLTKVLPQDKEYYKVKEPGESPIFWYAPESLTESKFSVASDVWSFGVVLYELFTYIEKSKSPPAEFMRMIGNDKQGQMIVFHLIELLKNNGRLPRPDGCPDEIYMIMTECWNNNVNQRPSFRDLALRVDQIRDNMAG

Row | Compound | IC50 [1] [µM] | IC50 [2] [µM] | IC50 [3] [µM] | IC50 [4] [µM]
1 | COc1c(Nc2cc(NC(=O)C3CC3)nc3ccn(C)c(=O)c23)cccc1-c1cnc(C2CCOCC2)s1 [Example 10, N-(4-((2-Methoxy-3-(2-(tetrahydro-2H-pyran-4-yl)thiazol-5-yl)phenyl)amino)-6-methyl-5-oxo-5,6-dihydro-1,6-naphthyridin-2-yl)cyclopropanecarboxamide Trifluoroacetic Acid Salt] | 1 to 10 | > 10 | 1 to 10 | > 10
2 | COc1c(Nc2cc(NC(=O)C3CC3)nc3cc[nH]c(=O)c23)cccc1C(=O)NCC1CCOCC1 [Example 11, 3-((2-(Cyclopropanecarboxamido)-5-oxo-5,6-dihydro-1,6-naphthyridin-4-yl)amino)-2-methoxy-N-((tetrahydro-2H-pyran-4-yl)methyl)benzamide Trifluoroacetic Acid Salt] | 1 to 10 | > 10 | 1 to 10 | > 10
3 | CSc1c(Nc2cc(NC(=O)C3CC3)nc3cc[nH]c(=O)c23)cccc1-c1cnn(C2CCOCC2)c1 [Example 12, N-(4-((2-(Methylthio)-3-(1-(tetrahydro-2H-pyran-4-yl)-1H-pyrazol-4-yl)phenyl)amino)-5-oxo-5,6-dihydro-1,6-naphthyridin-2-yl)cyclopropanecarboxamide Trifluoroacetic Acid Salt] | 0.5 to 1 | > 10 | 0.5 to 1 | > 10
4 | CS(=O)(=O)c1c(Nc2cc(NC(=O)C3CC3)nc3cc[nH]c(=O)c23)cccc1-c1cnn(C2CCOCC2)c1 [Example 13, N-(4-((2-(Methylsulfonyl)-3-(1-(tetrahydro-2H-pyran-4-yl)-1H-pyrazol-4-yl)phenyl)amino)-5-oxo-5,6-dihydro-1,6-naphthyridin-2-yl)cyclopropanecarboxamide Trifluoroacetic Acid Salt] | 1 to 10 | > 10 | 1 to 10 | > 10
5 | COc1c(Nc2cc(NC(=O)C3CC3)nc3cc[nH]c(=O)c23)cccc1C(F)(F)F [Example 14, N-(4-((2-Methoxy-3-(trifluoromethyl)phenyl)amino)-5-oxo-5,6-dihydro-1,6-naphthyridin-2-yl)cyclopropanecarboxamide Trifluoroacetic Acid Salt] | 0.1 to 0.5 | > 10 | 0.1 to 0.5 | > 10
6 | O=C(Nc1cc(Nc2cccc(Cl)c2-c2cn[nH]c2)c2c(=O)[nH]ccc2n1)C1CC1 [Example 16, N-(4-((3-Chloro-2-(1H-pyrazol-4-yl)phenyl)amino)-5-oxo-5,6-dihydro-1,6-naphthyridin-2-yl)cyclopropanecarboxamide Trifluoroacetic Acid Salt] | 0.5 to 1 | 1 to 10 | 0.5 to 1 | 1 to 10
7 | Cc1[nH]ncc1-c1c(Cl)cccc1Nc1cc(NC(=O)C2CC2)nc2cc[nH]c(=O)c12 [Example 17, N-(4-((3-Chloro-2-(5-methyl-1H-pyrazol-4-yl)phenyl)amino)-5-oxo-5,6-dihydro-1,6-naphthyridin-2-yl)cyclopropanecarboxamide Trifluoroacetic Acid Salt] | 0.5 to 1 | 1 to 10 | 1 to 10 | 1 to 10
8 | O=C(Nc1cc(Nc2cccc(C(F)(F)F)c2-c2cn[nH]c2)c2c(=O)[nH]ccc2n1)C1CC1 [Example 18, N-(4-((2-(1H-pyrazol-4-yl)-3-(trifluoromethyl)phenyl)amino)-5-oxo-5,6-dihydro-1,6-naphthyridin-2-yl)cyclopropanecarboxamide Trifluoroacetic Acid Salt] | 0.5 to 1 | > 10 | 0.5 to 1 | > 10
9 | Cc1[nH]ncc1-c1c(Nc2cc(NC(=O)C3CC3)nc3cc[nH]c(=O)c23)cccc1C(F)(F)F [Example 19, N-(4-((2-(5-Methyl-1H-pyrazol-4-yl)-3-(trifluoromethyl)phenyl)amino)-5-oxo-5,6-dihydro-1,6-naphthyridin-2-yl)cyclopropanecarboxamide Trifluoroacetic Acid Salt] | 1 to 10 | > 10 | 1 to 10 | > 10
10 | O=C(Nc1cc(Nc2ccccc2OC(F)F)c2c(=O)[nH]ccc2n1)C1CC1 [Example 20, N-(4-((2-(Difluoromethoxy)phenyl)amino)-5-oxo-5,6-dihydro-1,6-naphthyridin-2-yl)cyclopropanecarboxamide Trifluoroacetic Acid Salt] | 1 to 10 | 1 to 10 | 1 to 10 | 1 to 10
11 | COc1ccccc1Nc1cc(NC(=O)C2CC2)nc2cc[nH]c(=O)c12 [Example 21, N-(4-((2-Methoxyphenyl)amino)-5-oxo-5,6-dihydro-1,6-naphthyridin-2-yl)cyclopropanecarboxamide] | 1 to 10 | 1 to 10 | > 10 | 1 to 10
12 | CNc1ccccc1Nc1cc(NC(=O)C2CC2)nc2cc[nH]c(=O)c12 [Example 22, N-(4-((2-(Methylamino)phenyl)amino)-5-oxo-5,6-dihydro-1,6-naphthyridin-2-yl)cyclopropanecarboxamide Trifluoroacetic Acid Salt] | > 10 | > 10 | > 10 | > 10
13 | O=C(Nc1cc(Nc2ccccc2CO)c2c(=O)[nH]ccc2n1)C1CC1 [Example 23, N-(4-((2-(Hydroxymethyl)phenyl)amino)-5-oxo-5,6-dihydro-1,6-naphthyridin-2-yl)cyclopropanecarboxamide Trifluoroacetic Acid Salt] | 1 to 10 | 1 to 10 | > 10 | 1 to 10
14 | O=C(Nc1cc(Nc2ccccc2OC2CC2)c2c(=O)[nH]ccc2n1)C1CC1 [Example 24, N-(4-((2-Cyclopropoxyphenyl)amino)-5-oxo-5,6-dihydro-1,6-naphthyridin-2-yl)cyclopropanecarboxamide Trifluoroacetic Acid Salt] | 1 to 10 | 1 to 10 | 1 to 10 | 0.5 to 1
